The values below come from US20230134760A1, “CAR AND NRF2 DUAL ACTIVATOR AGENTS FOR CYCLOPHOSPHAMIDE-BASED AND DOXORUBICIN-BASED TREATMENTS OF CANCER” (priority 2020, published 2023).

One series relates to hCAR. Put plainly: Ad/EYFP-hCAR translocation assay in HPH. It counts as cell-based, human. To be noted: Ad-EYFP-hCAR-infected HPH; DL7076 10 μM, PB 1 mM. How it is done: HPH were seeded on collagen-coated 12-well plates. 24 hours after seeding, HPH were infected with Ad/EYFP-hCAR at a concentration of 5 μL/mL of media and incubated overnight. HPH infected cells were treated with a vehicle control (DMSO 0.01%), a positive control (1 mM PB), and compounds of interest for 8 h. Fluorescence was viewed using the YFP channel (Nikon Eclipse Ti) and quantified by identifying the number of total cells expressing EYFP-hCAR over EYFP-hCAR present in the nucleus. Representative images are shown, and quantitative data represents the mean±SD of 3 individual images for each treatment group.

The subject of the next series is HO-1. Put plainly: HO-1 expression in BT549 cells. In kind it is cell-based. To be noted: BT549, 10 μM, 24 hours. The method, then:
Immortalized triple negative breast cancer cell lines MDA-MB-231 and BT549 were obtained from ATCC (Rockville, Md.). Additionally, the h9c2 cell line was purchased from ATCC (Rockville, Md.). […] Human iPSC-derived cardiomyocytes were maintained in Mtesr plus and supplemented according to protocol. These cells were treated for 2 hrs or an overnight as indicated. Following a 2 hr pretreatment, cells were co-treated with DOX at indicated concentrations for 6 or 22 hours. Following the overnight treatments, RNA or protein was isolated. HPH were seeded in collagen-coated 24 well plates and pretreated for 24 hrs. BT549 were seeded on inverted coverslips. After a 24 hr pretreatment, hepatocytes were co-administered as indicated and coverslips were inserted. The cell lines were used for less than 60 passages. After 24 h treatment, HPH, BT549, MDA-MB-231, and H9c2 cells were washed and a phenol-chloroform extraction was used to isolate total RNA with the TRIzol reagent (ThermoFisher, Rockford, Ill.). Reverse transcription was performed on extracted RNA (1 μg) to produce cDNA using the High Capacity cDNA Archive kit according to manufacturer's instructions (Applied Biosystems, Foster, Calif.). […] Quantification of expression changes was done by the 2^ΔΔCt method, normalizing to GAPDH as the housekeeping gene and determining the fold change compared to control values (n=3). […]

The test system of a further series is Nrf2. Put plainly: Nrf2 expression and nuclear translocation in H9c2 cardiomyocytes (Western blot). It counts as cell-based, rat. From the text: Protein was harvested using cell lysis buffer (Cell Signaling Technology, Danvers, Mass.) with a complete protease inhibitor cocktail (Roche, Mannheim, Germany) prior to homogenizing via sonification. Homogenized protein from treated HPH, H9c2, BT549, and MDA-MB-231 cells were resolved on NuPage Novex Bis-Tris 4-12% gels (Life Technologies) or NuPage Novex Bis-Tris 12% gel and transferred through electrophoresis onto immobilon-P polyvinylidene difluoride (PVDF) membranes. Membranes were blocked with 5% BSA or 5% milk in Tris-Buffer saline with Tween 20 (TBST). Further, membranes were incubated with specific antibodies against human CYP2B6 (1:1000, Abcam), CYP3A4 (1:1000, Millipore Sigma), HO-1 (1:1000, Abcam), cleaved caspase-3 (1:1000 Cell Signaling Technologies), Nrf2 (1:1000, Abcam), TATA-Binding Protein (1:500, Santa Cruz) β-actin (1:3000, Millipore Sigma) at 4° C. overnight. Following overnight incubation, horseradish peroxidase goat anti-mouse or anti-rabbit IgG antibodies were used for secondary incubation. Membranes were developed using SuperSignal West Pico Chemiluminescent Substrate (Thermo Scientific) or Radiance Q (Azure). Two TNBC cell lines, cardiomyocytes, and HPH protein samples were isolated and resolved on a 4-12% or 12% SDS PAGE gel followed by electrophoretic transfer to a PVDF membrane. […]
(In general: Immunoblotting shows a protein as a band on a membrane.)

Series [1] relates to BT549 cells. Put plainly: Oxidative stress imaging (DFDA) in BT549 cells. It counts as cell-based. To be noted: BT549, DL7076 5 μM + DOX.
The test system of the next series is MDA-MB-231 cells. Briefly: Oxidative stress imaging (DFDA) in MDA-MB-231 cells. The note with it: MDA-MB-231, DL7076 5 μM + DOX. In kind it is cell-based.
In series [2] the test system is BT549 cells. Put plainly: Multi-organ co-culture (BT549/HPH/H9c2), BT549 viability. To be noted: DL7076 10 μM. In kind it is cell-based. How it is done: Additionally, HPH were cultured in collagen-coated 6-well plates and pre-treated as described in the previous co-culture system. BT549 and H9c2 cells were plated on similar modified coverslips 0.8×10^5 cells and allowed to attach for 24 hours during hepatocyte pre-treatment. […] Following pre-treatment, BT549 coverslips were inserted adjacent to H9c2 coverslips over the sandwich cultured HPH as depicted in FIG. 43a. […] Both BT549 and H9c2 cells were harvested at indicated time points and assess for viability, apoptosis, and DNA damage as detailed further. H9c2 cells were seeded 0.8×10^5 in 24-well plates. […] A Cell Counting Kit-8 (Enzo) assay was carried out. Cell viability was described as a percent of vehicle control (0.1% DMSO).

As to `O=C(NCCN=C=S)c1c(-c2ccc3ccccc3c2)nc2sccn12` [DL7076, N-(2-Isothiocyanatoethyl)-6-(naphthalen-2-yl)imidazo[2,1-b]thiazole-5-carboxamide], the EYFP-hCAR nuclear translocation entry in the series with hCAR was “triggered hCAR nuclear translocation”. The molecule further had an HO-1 induction with HO-1 of 1.5 fold. In the series on Nrf2 (nuclear extracts of H9c2, 1, 5, 10 μM), the Nrf2 nuclear accumulation result was “accumulating in a concentration dependent manner within the nucleus”. Also, the Nrf2 expression entry with Nrf2 (whole H9c2 cell lysates, 1, 5, 10 μM) is recorded as “increased Nrf2 expression in a concentration dependent manner”. The ROS with cotreatment result with BT549 cells [1] and in the series with MDA-MB-231 cells was “significant ROS without reduction” in each case. The “CPA/DOX cytotoxicity in BT549 cells” value in the series with BT549 cells [2] is “selectively enhanced CPA/DOX regimen cytotoxicity in BT549 cells”.
